The target of this assay is Human immunodeficiency virus type 1 protease (Human immunodeficiency virus 1, UniProt Q72874). Kind of assay: ChEBML_157558. An excerpt:
Inhibition of HIV-1 protease.

Structures are written as SMILES.

By Ki is commonly meant a dissociation constant, usually derived from enzyme kinetics or from competition with a known ligand. Low values mean higher affinity, high ones lower affinity. `O=c1oc2c(c(O)c1C(c1cccc(CS(=O)(=O)c3ccccn3)c1)C1CC1)CCCCCC2` (configuration not stated) [3-{Cyclopropyl-[3-(pyridine-2-sulfonylmethyl)-phenyl]-methyl}-4-hydroxy-5,6,7,8,9,10-hexahydro-cycloocta[b]pyran-2-one] yielded an inhibition constant Ki of 1.9 nM.

`N#Cc1ccc(S(=O)(=O)Cc2cccc(C(c3c(O)c4c(oc3=O)CCCCCC4)C3CC3)c2)cc1` (configuration not stated) [4-{3-[Cyclopropyl-(4-hydroxy-2-oxo-5,6,7,8,9,10-hexahydro-2H-cycloocta[b]pyran-3-yl)-methyl]-phenylmethanesulfonyl}-benzonitrile] gave an inhibitory constant (Ki) of 1.9 nM.
